Here are results for 7 compounds from ChEMBL document CHEMBL6127134, “Light-Activable Inhibitor Overcomes Antimicrobial Resistance and Regulates Antibacterial Activity” (J Med Chem, 2024).

For series [1], the system named is Escherichia coli. In words: Antibacterial activity against drug susceptible Escherichia coli. Format: functional.
The subject of series [2] is Escherichia coli. As to the kind of experiment: Antibacterial activity against drug resistant Escherichia coli. Format: functional.
Series [3] concerns Escherichia coli. In words: Antibacterial activity against cefoperazone sodium susceptible Escherichia coli incubated for 8 hrs. Format: functional.
In series [4] the test system is Escherichia coli. In words: Bactericidal activity against CFS susceptible Escherichia coli incubated under dark condition by AO/EB staining based confocal laser scanning microscopy assay. Format: functional, organism-based.
In series [5] the test system is Escherichia coli. In words: Antibacterial activity against cefoperazone sodium resistant Escherichia coli assessed as elimination of resistant bacteria incubated for 8 hrs. Type of series: functional.
In series [6] the test system is Escherichia coli. In words: Antibiofilm activity against drug susceptible Escherichia coli incubated for 48 hrs by crystal violet staining based microplate reader assay. Format: functional, organism-based.
For series [7], the system named is Escherichia coli. In words: Bactericidal activity against CFS susceptible Escherichia coli incubated under light irradiation by AO/EB staining based confocal laser scanning microscopy assay. Format: functional, organism-based.
Series [8] has as its system Escherichia coli. In words: Antibacterial activity against cefoperazone sodium resistant Escherichia coli incubated for 8 hrs. Type of series: functional.
The test system of series [9] is Escherichia coli. In words: Antibiofilm activity against drug resistant Escherichia coli incubated for 48 hrs by crystal violet staining based microplate reader assay. Type of series: functional.
Series [10] concerns Escherichia coli. In words: Antibacterial activity against CFS resistant Escherichia coli assessed as change in bacterial cell wall by SEM analysis. Format: functional, organism-based.
Series [11] deals with Escherichia coli. As to the kind of experiment: Bactericidal activity against CFS resistant Escherichia coli incubated under dark condition by AO/EB staining based confocal laser scanning microscopy assay. Format: functional, organism-based.
Series [12] concerns Escherichia coli. In words: Synergistic antibacterial activity against cefoperazone sodium resistant Escherichia coli assessed as decrease in CFS MIC at 20 ug/ml incubated for 8 hrs (reference value: 285 ug/ml). To be noted: dose 20 µg/ml. Type of series: functional.
Series [13] deals with Escherichia coli. In words: Bactericidal activity against drug resistant Escherichia coli in presence of CFS by plate count method. Format: functional.
Series [14] has as its system Escherichia coli. As to the kind of experiment: Bactericidal activity against drug resistant Escherichia coli after repeated drug exposure for three generation and measured on fourth generation in presence of CFS by plate count method. Type of series: functional.
In series [15] the test system is Escherichia coli. In words: Antibiofilm activity against drug susceptible Escherichia coli incubated for 48 hrs in presence of CFS by crystal violet staining based microplate reader assay. Type of series: functional, organism-based.
Series [16] has as its system Bacteria. In words: Inhibition of TEM-1 activity (unknown origin) at 10 ug/ml using nitrocefin as substrate preincubated for 30 mins followed by 485 nm light irradiation and substrate addition by UV-Vis spectrometer assay. To be noted: dose 10.0 µg/ml.
Series [17] has as its system Bacteria. As to the kind of experiment: Inhibition of TEM-1 activity (unknown origin). To be noted: concentration not given here.
The nature of series [18]: Photoactivation of the compound assessed as photo conversion ratio by measuring SU release under 5 mins of blue light irradiation by HPLC analysis.
Series [19] can be described thus: Drug uptake in Escherichia coli assessed as increase in red fluorescence at 1 mg/ml after 1 mins under 405 nm light irradiation by acridine orange staining based confocal laser scanning microscopy analysis. Type of series: ADME.
A short description of series [20]: Drug uptake in Escherichia coli assessed as increase in red fluorescence at 1 mg/ml incubated for 15 mins under dark condition by acridine orange staining based confocal laser scanning microscopy analysis. Type of series: ADME. To be noted: 0.25 h.
The test system of another series is HeLa. As to the kind of experiment: Cytotoxicity against human HeLa cells assessed as viable cells after 200 ug/ml incubated for 24 hrs by MTT assay. Type of series: functional. The note with it: read-out: Activity. (In general: Tetrazolium dyes change colour on reduction, which living cells bring about.)
Series [21] has as its system Escherichia coli. As to the kind of experiment: Synergistic antibacterial activity against Escherichia coli assessed as appearance of incomplete cell wall under light irradiation in presence of CFS. Format: functional, organism-based.
Series [22] relates to Escherichia coli. As to the kind of experiment: Synergistic antibacterial activity against cefoperazone sodium resistant Escherichia coli assessed as elimination of resistant bacteria incubated for 8 hrs in presence of CFS. Type of series: functional.
Series [23] is described as follows: Photoactivation of the compound assessed as encapsulated SU release under 405 nm light irradiation by HPLC analysis.
The test system of series [24] is Escherichia coli. In words: Bactericidal activity against drug resistant Escherichia coli after repeated drug exposure for multiple generation under light irradiation in presence of CFS by plate count method. Format: functional, organism-based.
Series [25] concerns Bacteria. As to the kind of experiment: Inhibition of TEM-1 activity (unknown origin) at 65 ug/ml using nitrocefin as substrate under absence of light irradiation by UV-Vis spectrometer assay. The note with it: dose 65.0 µg/ml.
Series [26] deals with Escherichia coli. In words: Synergistic bactericidal activity against CFS resistant Escherichia coli incubated under dark condition in presence of CFS by AO/EB staining based confocal laser scanning microscopy assay. Format: functional, organism-based.
In series [27] the test system is Bacteria. As to the kind of experiment: Inhibition of TEM-1 activity (unknown origin) at 65 ug/ml using nitrocefin as substrate preincubated for 30 mins followed by 485 nm light irradiation and substrate addition by UV-Vis spectrometer assay. To be noted: dose 65.0 µg/ml.
Series [28] has as its system Escherichia coli. As to the kind of experiment: Synergistic antibacterial activity against cefoperazone sodium resistant Escherichia coli assessed as decrease in CFS MIC at 132 ug/ml preincubated for 20 mins prior to 405 nm LED laser irradiation for 5 mins and cocultured for 6 hrs under static condition and measured after 24 hrs by plate count method (reference value: 285 ug/ml). Type of series: functional. The note with it: light or radiation study, 30.42 h, dose 132 µg/ml, time 1825 min.

In series [29] the test system is Escherichia coli. In words: Antibiofilm activity against drug resistant Escherichia coli incubated for 48 hrs in presence of CFS by crystal violet staining based microplate reader assay. Type of series: functional.
Series [30] relates to Escherichia coli. As to the kind of experiment: Antibiofilm activity against Escherichia coli assessed as reduction in bacterial cell density after 48 hrs under light irradiation in presence of CFS by FITC-ConA staining based confocal laser scanning microscopy analysis. Format: functional, organism-based.
The test system of series [31] is Escherichia coli. As to the kind of experiment: Synergistic bactericidal activity against CFS resistant Escherichia coli incubated under light irradiation in presence of CFS by AO/EB staining based confocal laser scanning microscopy assay. Format: functional, organism-based.
Series [32] deals with Escherichia coli. In words: Synergistic antibacterial activity against cefoperazone sodium resistant Escherichia coli assessed as elimination of resistant bacteria in presence of CFS preincubated for 20 mins prior to 405 nm LED laser irradiation for 5 mins and cocultured for 6 hrs under static condition and measured after 24 hrs by plate count method. Format: functional. The note with it: time 1825 min; 30.42 h.

The nature of series [33]: Solubility of compound in water. Type of series: physicochemical.
The subject of series [34] is Escherichia coli. As to the kind of experiment: Antibiofilm activity against drug resistant Escherichia coli incubated for 48 hrs under light irradiation in presence of CFS by crystal violet staining based microplate reader assay. Type of series: functional.
The test system of series [35] is Bacteria. In words: Inhibition of TEM-1 activity (unknown origin) at 65 ug/ml using nitrocefin as substrate preincubated for 30 mins followed by 485 nm light irradiation and substrate addition measured after 5 mins by UV-Vis spectrometer assay. The note with it: dose 65.0 µg/ml, time 35.0 min.
The subject of series [36] is Escherichia coli. As to the kind of experiment: Synergistic antibacterial activity against Escherichia coli incubated under dark condition in presence of AMP. Format: functional, organism-based.
The subject of series [37] is Escherichia coli. In words: Synergistic antibacterial activity against CFS resistant Escherichia coli assessed as increase in bacterial killing in presence of CFS preincubated for 20 mins prior to 405 nm LED laser irradiation for 5 mins and cocultured for 6 hrs under static condition and measured after 24 hrs by plate count method. Format: functional, organism-based. The note with it: time 1825.0 min.

For series [38], the system named is Escherichia coli. As to the kind of experiment: Antibiofilm activity against Escherichia coli assessed as reduction in exo-polysaccharide content after 48 hrs under light irradiation in presence of CFS by FITC-ConA staining based confocal laser scanning microscopy analysis. Type of series: functional, organism-based.
The test system of series [39] is Escherichia coli. In words: Synergistic antibacterial activity against Escherichia coli assessed as appearance of shrunken cell wall under light irradiation in presence of CFS. Format: functional, organism-based.
The subject of series [40] is Escherichia coli. In words: Downregulation of beta-lactamase expression in Escherichia coli measured after eighth generation in presence of CFS under light irradiation condition by ELISA. Format: functional. (ELISA stands for enzyme-linked immunosorbent assay.)
For series [41], the system named is Bacteria. As to the kind of experiment: Inhibition of TEM-1 activity (unknown origin) at 65 ug/ml using nitrocefin as substrate preincubated for 30 mins followed by 485 nm light irradiation and substrate addition measured after 2 mins by UV-Vis spectrometer assay. The note with it: dose 65.0 µg/ml, time 32.0 min.
In series [42] the test system is Escherichia coli. In words: Synergistic antibacterial activity against CFS susceptible Escherichia coli assessed as increase in bacterial killing incubated under dark condition in presence of CFS. Format: functional, organism-based.
Series [43] can be described thus: Stability of compound under ambient light condition measured after 72 hrs. Format: physicochemical.
For series [44], the system named is Escherichia coli. As to the kind of experiment: Synergistic antibacterial activity against Escherichia coli incubated under light irradiation in presence of AMP. Type of series: functional, organism-based.
For series [45], the system named is Escherichia coli. As to the kind of experiment: Synergistic bactericidal activity against CFS susceptible Escherichia coli incubated under dark condition in presence of CFS by AO/EB staining based confocal laser scanning microscopy assay. Format: functional, organism-based.
Series [46] concerns Escherichia coli. As to the kind of experiment: Synergistic bactericidal activity against CFS susceptible Escherichia coli incubated under light irradiation in presence of CFS by AO/EB staining based confocal laser scanning microscopy assay. Type of series: functional, organism-based.

Values after ≈ are worked out from the molar mass of the structure shown. Active and inactive are the calls of the source.

Take `CC1(C)S[C@@H]2[C@H](NC(=O)[C@H](N)c3ccccc3)C(=O)N2[C@H]1C(=O)O` [AMPICILLIN]: the results for the MIC with Escherichia coli [1] and against Escherichia coli [2] were 8 µg/mL (≈ 22.9 µM) and 150 µg/mL (≈ 429 µM), respectively.

For `CCN1CCN(C(=O)N[C@@H](C(=O)N[C@@H]2C(=O)N3C(C(=O)[O-])=C(CSc4nnnn4C)CS[C@H]23)c2ccc(O)cc2)C(=O)C1=O.[Na+]` [CEFOPERAZONE SODIUM], the values for the MIC in the series with Escherichia coli [3] and in the series on Escherichia coli [8] were 14 µg/mL and 285 µg/mL, respectively. Moreover, the outcome in the series with Escherichia coli [4], in the series on Escherichia coli [6] and in the series on Escherichia coli [7] was Active. Moreover, the results for the Activity in the series on Escherichia coli [5] and with Escherichia coli [9] were 54.2% and approximately 50%, respectively. Further, the result with Escherichia coli [10] and in the series with Escherichia coli [11] was inactive.

As for `CC1(C)[C@H](C(=O)O)N2C(=O)C[C@H]2S1(=O)=O` [SULBACTAM], in the series with Escherichia coli [12], the MIC was found to be 14 µg/mL. The Activity was 98% in the series on Escherichia coli [13] and 45% in the series with Escherichia coli [14]. Besides, the result in the series with Escherichia coli [15] was Active. The same compound returned an inhibition with Bacteria [16] of 93.3%.

In the series with Bacteria [17], `CC1(C)C(C(=O)OCCc2ccccc2[N+](=O)[O-])N2C(=O)CC2S1(=O)=O` (stereo not given) came in with an inhibition of 9.03%. For the same compound, in series [18], the Activity was 25%.

`CCN(CC)c1ccc2c(-c3ccccc3COCC(C)c3cc(-c4ccc(OCCOCCOCCOCCn5nncc5CCCO[C@H]5O[C@H](CO)[C@H](O)[C@H](O)[C@H]5O)cc4)ccc3[N+](=O)[O-])c3ccc(=[N+](CC)CC)cc-3oc2c1.Cl` (stereo not given in full): the Drug uptake result in series [19] and in [20] was “Active” each time.

`CC(COC(=O)C1N2C(=O)CC2S(=O)(=O)C1(C)C)c1cc(-c2ccc(OCCOCCOCCOCCn3nncc3CCCO[C@H]3O[C@H](CO)[C@H](O)[C@H](O)[C@H]3O)cc2)ccc1[N+](=O)[O-]` (stereo not given in full): the viability at 200 µg/mL in the series on HeLa is more than 90%. Also, the outcome with Escherichia coli [21], in the series on Escherichia coli [24], in the series with Escherichia coli [30], in the series with Escherichia coli [31], in the series on Escherichia coli [15] and with Escherichia coli [36] was Active. For the same compound, the result with Escherichia coli [37], with Escherichia coli [38], with Escherichia coli [39], with Escherichia coli [40], with Escherichia coli [42] and in the series with Escherichia coli [44] was Active. Also, in the series with Escherichia coli [46], the result was Active. In addition, the Activity in the series with Escherichia coli [22] is recorded as 54.7%; in [23] it was ~ 60%; in the series with Escherichia coli [29], approximately 50%; in the series with Escherichia coli [32] it was 96.01%; in the series on Escherichia coli [34] it was approximately 90%; in [18], 62%. Moreover, the inhibition in the series with Bacteria [25] came to 7.26%; in the series with Bacteria [35], 89.1%; in the series with Bacteria [41], 84.7%. For the same compound, the result with Escherichia coli [26] and with Escherichia coli [45] was inactive. Moreover, the inhibition result in the series with Bacteria [27] is “Active”. In addition, in the series with Escherichia coli [28], the MIC came to 14 µg/mL. Also, in series [33], the solubility is not above 1000 µM. Further, in series [43], the Stability result is “Stable”.

`CC1(C)C(C(=O)OCCCOC(=O)Cc2ccccc2[N+](=O)[O-])N2C(=O)CC2S1(=O)=O` (stereo not given) yielded an inhibition in the series with Bacteria [17] of 10.6%.

A word on the MIC: it is the smallest concentration in the dilution series that meets the test's criterion for growth inhibition. One may read the inhibition as the percentage by which the read-out fell short of the control. Usually solubility stands for the concentration that dissolves in the medium under given conditions.
